Data taken from US20250177347A1, “SCLAREOL OR SCLAREOLIDE FOR USE IN THE TREATMENT OF INFLAMMATORY SKIN CONDITIONS” (ISP Investments LLC, priority 2022, published 2025).
In brackets after ≈: the same amount, converted by molar mass.

Key:
Malassezia restricta = experiment: Broth microdilution MIC assay (EUCAST guidelines, slight modifications), resazurin fluorescence; format: cell-based; details: 48 h-60 h at 34° C.
Protocol: Objective: Sclareolide antifungal potential on Malassezia restricta was evaluated by the broth microdilution method.
Protocol: Malassezia restricta was routinely grown on modified Leeman-Notman (mLN) agar. The broth microdilution assay was performed following EUCAST guidelines (www.eucast.org) with slight modifications. Between five and ten colonies were suspended in a modified RPMI 1640 media supplemented with resazurin at a D.O (Density Optical) of 0.1. In a 96 well plate, serial dilutions of sclareolide (0.00023% to 0.12%) from a 24% stock solution in DMSO, and ketoconazole (0.001 to 0.25 μg/ml) solutions were prepared in modified RPMI 1640 culture medium. An equal volume of Malassezia restricta inoculum was added to the test samples at different concentrations. Following 48 h-60 h of incubation at 34° C., resazurin fluorescence was analyzed at 530 nm and 590 nm.
Results and conclusion: Results are presented as relative fluorescence intensity compared to DMSO control. MIC is defined as the lowest drug concentration that prevents growth of microorganisms.

C. glabrata KCTC7219 = details: cited from earlier work
[1] = system: C. parapsilosis KACC49573; details: cited from earlier work
C. auris KCTC17809 = details: cited from earlier work
[2] = system: C. parapsilosis var. parapsilosis KACC45480; details: cited from earlier work
[3] = system: C. tropicalis var. tropicalis KCTC17762; details: cited from earlier work
C. albicans KCTC7965 = details: cited from earlier work
keratin 10 = experiment: Keratin 10 immunohistochemistry in biopsies of healthy human abdominal skin in culture; format: cell-based
Protocol: Objective: The aim of this study is to show the effect of sclareolide on the synthesis of keratin 10 in biopsies of healthy abdominal skin.
Method: keratin 10 was assessed by immunohistochemistry with a specific antibody. […] Control biopsies received only 0.1% DMSO. The immunostaining was performed using paraffin sections incubated in the presence of anti-keratin 10 antibody (rabbit monoclonal, Abcam). After an hour and a half of incubation followed by rinses, the sections were incubated in the presence of the secondary anti-rabbit antibody coupled with a fluorophore (Alexa Fluor® 488, Invitrogen). The sections were then examined under a fluorescence microscope (Nikon Eclipse Ni-E microscope). […] fluorescence was then observed (using NiS-AR Nikon acquisition software) and quantified by image analysis (Volocity® image analysis software, Improvision).
(§1) This effect may be associated with a better quality of the skin barrier function.

epidermal lipids = experiment: Epidermal lipids, Nile Red staining, in biopsies of healthy human abdominal skin in culture; format: cell-based
Protocol: Objective: The aim of this study is to show the effect of sclareolide on the synthesis of epidermal lipids in biopsies of healthy abdominal skin.
Method: Epidermal lipids were assessed by fluorescent staining by using the fluorescent dye Nile Red.
[…] Control biopsies received only 0.1% DMSO. The epidermal lipids staining was performed using paraffin sections incubated with 100 nM of Nile Red solution (Sigma) for 10 minutes. The sections were then examined under a fluorescence microscope (Nikon Eclipse Ni-E microscope). Red fluorescence was then observed (using NiS-AR Nikon acquisition software) and quantified by image analysis (Volocity® image analysis software, Improvision).
as §1

[4] = system: scalp reconstructed human epidermis; experiment: Malassezia restricta applied topically to scalp reconstructed human epidermis: histology and cytokine ELISA; format: cell-based; details: sclareolide 0.12% topical, two applications
Text: Objective: Sclareolide anti-inflammatory effect and barrier function prevention was quantified by cytokine quantification and histological observation respectively
Protocol: Malassezia restricta was applied topically to a scalp reconstructed human epidermis. This in vitro model is reconstructed from keratinocytes isolated from scalp skin. More precisely, the location of the epidermis used to isolate keratinocytes is interfollicular epidermis. These interfollicular keratinocytes was harvested and transferred into a cell culture insert and after several days of reconstruction, 100 μl of Malassezia restricta was applied on the top of the epidermis. Two days later, 100 μL sclareolide at a concentration of 0,12% was applied on the top of the epidermis, another application was performed after 24 hours. Ninety-six hours after the beginning of the Malassezia treatment, scalp reconstructed epidermis was stopped to performed histological analysis to observe modifications in the upper layers of the epidermis and the supernatant was harvested to measure inflammatory cytokine release by ELISA method.
In parallel, sclareolide decreased the inflammation induced by Malassezia restricta by the decrease of interleukin-8 release by 40,3% illustrated by FIG. 2.

[5] = sclareolide 0.0025% in 0.1% DMSO, twice a day for 48 hours topically, vs 0.1% DMSO control
[6] = skin biopsies cultures, composition comprising of sclareolide
[7] = modified RPMI 1640, relative fluorescence vs DMSO control

CC(=O)N1CCN(c2ccc(OCC3COC(Cn4ccnc4)(c4ccc(Cl)cc4Cl)O3)cc2)CC1 (stereo not drawn) [ketoconazole, reference compound]
MIC (Malassezia restricta; Malassezia restricta, modified RPMI 1640): 0.0625 µg/mL (≈ 0.118 µM)

C=C[C@](C)(O)CC[C@@H]1[C@@]2(C)CCCC(C)(C)[C@@H]2CC[C@@]1(C)O [Sclareol]
Growth, biofilm formation, and yeast-hyphal transition (C. glabrata KCTC7219): inhibiting growth, biofilm formation, and yeast-hyphal transition
Growth, biofilm formation, and yeast-hyphal transition [1]: inhibiting growth, biofilm formation, and yeast-hyphal transition
Growth, biofilm formation, and yeast-hyphal transition (C. auris KCTC17809): inhibiting growth, biofilm formation, and yeast-hyphal transition
Growth, biofilm formation, and yeast-hyphal transition [2]: inhibiting growth, biofilm formation, and yeast-hyphal transition
Growth, biofilm formation, and yeast-hyphal transition [3]: inhibiting growth, biofilm formation, and yeast-hyphal transition
Growth, biofilm formation, and yeast-hyphal transition (C. albicans KCTC7965): inhibiting growth, biofilm formation, and yeast-hyphal transition

CC1(C)CCC[C@]2(C)[C@H]3CC(=O)O[C@]3(C)CC[C@@H]12 [sclareolide, Sclareolide]
Levels of keratin 10 (keratin 10; [5]): increase the levels of keratin 10
Keratin 10 expression (keratin 10; [6]): increased
Levels of epidermal lipids (epidermal lipids; [5]): increase the levels of epidermal lipids
Total lipid content (epidermal lipids; [6]): increased
Concentration at which growth of Malassezia restricta was completely inhibited (MIC) (Malassezia restricta; [7]): 0.12%
Concentration from which growth of Malassezia restricta was significantly inhibited (Malassezia restricta; [7]): 0.015%
Barrier function / penetration of Malassezia restricta in upper layers of the epidermis (histology) ([4]; 96 h): prevented the disruption of the barrier function and the penetration of Malassezia restricta in the upper layers of the epidermis
Decrease of interleukin-8 release ([4]; inflammation induced by Malassezia restricta, ELISA of supernatant at 96 h): 40,3%
